Laboratory results from ChEMBL document CHEMBL5729415, “Compounds for treatment of PD-L1 diseases” (2022).

Biological target: Programmed cell death 1 ligand 1 (Homo sapiens, UniProt Q9NZQ7)
Assay: Enzyme-Linked Immunosorbent Assay—ELISA: 96 Well plates were coated with 1 μg/mL of human PD-L1 (obtained from R&D) in PBS overnight at 4′° C. The wells were then blocked with 2% BSA in PBS (W/V) with 0.05% TWEEN-20 for 1 hour at 37′° C. The plates were washed 3 times with PBS/0.05% TWEEN-20 and the compounds were serial diluted (1:5) in dilution medium and added to the ELISA plates. Human PD-1 and biotin 0.3 μg/mL (ACRO Biosystems) were added and incubated for 1 hour at 37° C. then washed 3 times with PBS/0.05% TWEEN-20. A second block was performed with 2% BSA in PBS (WNV)/0.05% TWEEN-20 for 10 min at 37° C. and the plates were washed 3 times with PBS/0.05% TWEEN-20. Streptavidin-HIRP was added for 1 hour at 37° C. then the plates were washed 3 times with PBS/0.05% TWEEN-20. TMB substrate was added and reacted for 20 min at 37° C. A stop solution (2 N aqueous H2SO4) was added.

Sequence of Programmed cell death 1 ligand 1 (Q9NZQ7 whole entry): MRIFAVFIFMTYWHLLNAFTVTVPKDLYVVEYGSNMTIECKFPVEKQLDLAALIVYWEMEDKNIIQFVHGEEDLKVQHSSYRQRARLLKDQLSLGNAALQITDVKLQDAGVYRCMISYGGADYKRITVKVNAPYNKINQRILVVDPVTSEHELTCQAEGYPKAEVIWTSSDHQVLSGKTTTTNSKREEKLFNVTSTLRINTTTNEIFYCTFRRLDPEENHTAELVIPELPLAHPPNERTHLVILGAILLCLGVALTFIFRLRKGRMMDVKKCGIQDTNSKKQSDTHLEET

Structure (SMILES)	IC50 [µM]
COc1cc(-c2cccc(-c3cccc(-c4ccc(CN)cc4)c3C)c2C)cc(F)c1CN	< 1
COc1cc(-c2cccc(-c3ccc4c(c3F)OCCO4)c2C)cc(F)c1CN	< 1
COc1cccc(-c2cccc(-c3cc(F)c(CN)c(OC)c3)c2C)c1F	< 1
COc1cc(-c2cccc(-c3cccc(-c4cc(F)c(CN)c(OC)c4)c3C)c2C)cc(F)c1CN	< 1
COC(=O)c1ccc(-c2cccc(-c3cccc(-c4cc(F)c(CN)c(OC)c4)c3C)c2C)cc1OC	< 1
COc1cccc(-c2cccc(-c3cc(F)c(CN)c(OC)c3)c2C)c1	< 1
COc1cc(-c2cccc(-c3ccc4nc[nH]c(=O)c4c3)c2C)cc(F)c1CN	< 1
COc1cc(-c2cccc(-c3cccc(C)c3)c2C)cc(F)c1CN	< 1
COc1cc(-c2cccc(-c3ccc4c(c3)NC(=O)CO4)c2C)cc(F)c1CN	< 1
COc1cc(-c2cccc(-c3ccc4c(c3)OCCO4)c2C)cc(F)c1CN	< 1
COc1cc(-c2cccc(-c3cccc(C)c3F)c2C)cc(F)c1CN	< 1
COc1cc(F)cc(-c2cccc(-c3cc(F)c(CN)c(OC)c3)c2C)c1	< 1
COc1cc(-c2cccc(-c3ccc4c(c3)OC(CN)CO4)c2C)cc(F)c1CN (centres undefined)	< 1
COc1cc(OC)c(F)c(-c2cccc(-c3cc(F)c(CN)c(OC)c3)c2C)c1F	< 1
COc1cc(-c2cccc(-c3ccc4c(c3C)OCCO4)c2C)cc(F)c1CN	< 1
Cc1c(-c2ccc(CN)cc2)cccc1-c1cccc(-c2ccc(CN)cc2)c1C	< 1
COc1cccc(-c2cccc(-c3cc(F)c(CN)c(OC)c3)c2C)c1C	< 1
COc1cc(-c2cccc(-c3cccc(-c4cc(F)c(CN)c(OC)c4)c3C)c2C)ccc1CC(N)=O	< 1
COc1ccc(F)c(-c2cccc(-c3cc(F)c(CN)c(OC)c3)c2C)c1F	< 1
